Data on 49 compounds can be found in patent US7964531B2, “3-phenoxy-4-pyridazinol derivatives and herbicidal composition containing the same” (Mitsui Chemicals Agro, Inc., priority 2001, dated 2011).

A word on the melting point: it is the temperature, or range, at which the solid turns liquid. As for `CC(C)c1cc(Br)ccc1Oc1nnc(Cl)cc1O` [Compound No. 566, 3-(4-Bromo-2-isopropylphenoxy)-6-chloro-4-pyridazinol], the melting point was in the range of 215 to 225 °C.

In turn, `Cc1ccc(Oc2nnc(Cl)cc2O)c(C(C)(C)C)c1` [Compound No. 567, 3-(2-tert-Butyl-4-methylphenoxy)-6-chloro-4-pyridazinol] returned a melting point of 230 to 236 °C.

`Cc1ccc(Cl)cc1Oc1nnc(Cl)cc1O` [Compound No. 618, 6-Chloro-3-(5-chloro-2-methylphenoxy)-4-pyridazinol] gave a melting point of 174 to 180 °C.

`Cc1ccc(C)c(Oc2nnc(Cl)cc2O)c1` [Compound No. 621, 6-Chloro-3-(2,5-dimethylphenoxy)-4-pyridazinol] gave a melting point of 80 to 83 °C.

In turn, `Cc1ccc(C(C)C)cc1Oc1nnc(Cl)cc1O` [Compound No. 623, 6-Chloro-3-(5-isopropyl-2-methylphenoxy)-4-pyridazinol] displayed a melting point of 168 to 169 °C.

In turn, `Cc1ccc(C(=O)O)cc1Oc1nnc(Cl)cc1O` [Compound No. 626, 3-[(6-Chloro-4-hydroxy-3-pyridazinyl)oxy]-4-methylbenzoic acid] had a melting point of 238 to 240 °C.

Turning to `Cc1ccc(N(C)C)cc1Oc1nnc(Cl)cc1O` [Compound No. 628, 6-Chloro-3-[5-(dimethylamino)-2-methylphenoxy]-4-pyridazinol], the melting point fell in the range of 181 to 182 °C.

As to `COc1ccc(C)c(Oc2nnc(Cl)cc2O)c1` [Compound No. 629, 6-Chloro-3-(5-methoxy-2-methylphenoxy)-4-pyridazinol], the melting point lay in the range of 170 to 172 °C.

Compound `CCc1ccc(OC)cc1Oc1nnc(Cl)cc1O` [Compound No. 635, 6-Chloro-3-(2-ethyl-5-methoxyphenoxy)-4-pyridazinol] came in with a melting point of 124 to 126 °C.

Regarding `Cc1ccc(C(C)C)c(Oc2nnc(Cl)cc2O)c1` [Compound No. 640, 6-Chloro-3-(2-isopropyl-5-methylphenoxy)-4-pyridazinol], the melting point was in the range of 193 to 195 °C.

`CC(C)c1cc(Oc2nnc(Cl)cc2O)cc(C(C)C)c1` [Compound No. 642, 6-Chloro-3-(3,5-diisopropylphenoxy)-4-pyridazinol] displayed a melting point of 231 to 235 °C.

`CC(C)(C)c1ccc(C(C)(C)C)c(Oc2nnc(Cl)cc2O)c1` [Compound No. 653, 6-Chloro-3-(2,5-di-tert-butylphenoxy)-4-pyridazinol] displayed a melting point of 249 to 258 °C.

`Oc1cc(Cl)nnc1Oc1cc(F)ccc1C1CC1` [Compound No. 658, 6-Chloro-3-(2-cyclopropyl-5-fluorophenoxy)-4-pyridazinol] registered a melting point of 227 to 228 °C.

In the case of `Oc1cc(Cl)nnc1Oc1cc(Cl)ccc1C1CC1` [Compound No. 659, 6-Chloro-3-(5-chloro-2-cyclopropylphenoxy)-4-pyridazinol], the melting point lay in the range of 194 to 195 °C.

In the case of `Cc1ccc(C2CC2)c(Oc2nnc(Cl)cc2O)c1` [Compound No. 662, 6-Chloro-3-(2-cyclopropyl-5-methylphenoxy)-4-pyridazinol], the melting point is 150 to 159 °C.

The compound `CC(C)c1ccc(C2CC2)c(Oc2nnc(Cl)cc2O)c1` [Compound No. 664, 6-Chloro-3-(2-cyclopropyl-5-isopropylphenoxy)-4-pyridazinol] returned a melting point of 211 to 212 °C.

With `N#Cc1ccc(C2CC2)c(Oc2nnc(Cl)cc2O)c1` [Compound No. 667, 3-[(6-Chloro-4-hydroxy-3-pyridazinyl)oxy]-4-cyclopropylbenzonitrile], the melting point lay in the range of 211 to 212 °C.

In the case of `CC=Cc1ccc(F)cc1Oc1nnc(Cl)cc1O` [Compound No. 679, 6-Chloro-3-[5-fluoro-2-(1-propenyl)phenoxy]-4-pyridazinol], the melting point was in the range of 210 to 217 °C.

As for `CC=Cc1ccc(Cl)cc1Oc1nnc(Cl)cc1O` [Compound No. 680, 6-Chloro-3-[5-chloro-2-(1-propenyl)phenoxy]-4-pyridazinol], the melting point was in the range of 221 to 224 °C.

`CN(C)c1ccc(C=O)c(Oc2nnc(Cl)cc2O)c1` [Compound No. 692, 2-[(6-Chloro-4-hydroxy-3-pyridazinyl)oxy]-4-(dimethylamino)benzaldehyde] gave a melting point of 124 to 127 °C.

`COc1ccc(F)cc1Oc1nnc(Cl)cc1O` [Compound No. 700, 6-Chloro-3-(5-fluoro-2-methoxyphenoxy)-4-pyridazinol] came in with a melting point of 187 to 191 °C.

In turn, `COc1ccc(Cl)cc1Oc1nnc(Cl)cc1O` [Compound No. 701, 3-(5-Chloro-2-methoxyphenoxy)-6-chloro-4-pyridazinol] displayed a melting point of 143 to 155 °C.

`COc1ccc(Br)cc1Oc1nnc(Cl)cc1O` [Compound No. 702, 3-(5-Bromo-2-methoxyphenoxy)-6-chloro-4-pyridazinol] returned a melting point of 135 to 137 °C.

`COc1ccc(C)cc1Oc1nnc(Cl)cc1O` [Compound No. 704, 6-Chloro-3-(2-methoxy-5-methylphenoxy)-4-pyridazinol] had a melting point of 126 to 134 °C.

Compound `COc1ccc(C#N)cc1Oc1nnc(Cl)cc1O` [Compound No. 707, 3-[(6-Chloro-4-hydroxy-3-pyridazinyl)oxy]-4-methoxybenzonitrile] came in with a melting point of 187 to 192 °C.

Compound `COc1ccc(OC)c(Oc2nnc(Cl)cc2O)c1` [Compound No. 709, 6-Chloro-3-(2,5-dimethoxyphenoxy)-4-pyridazinol] yielded a melting point of 150 to 152 °C.

Compound `Oc1cc(Cl)nnc1Oc1c(F)cccc1F` [Compound No. 710, 6-Chloro-3-(2,6-difluorophenoxy)-4-pyridazinol] returned a melting point of 209 to 213 °C.

`CCCc1cccc(F)c1Oc1nnc(Cl)cc1O` [Compound No. 716, 6-Chloro-3-(2-fluoro-6-propylphenoxy)-4-pyridazinol] showed a melting point of 134 to 137 °C.

For `CC(C)c1cccc(F)c1Oc1nnc(Cl)cc1O` [Compound No. 717, 6-Chloro-3-(2-fluoro-6-isopropylphenoxy)-4-pyridazinol], the melting point lay within 215 to 220 °C.

For `Oc1cc(Cl)nnc1Oc1c(F)cccc1C1CC1` [Compound No. 719, 6-Chloro-3-(2-cyclopropyl-6-fluorophenoxy)-4-pyridazinol], the melting point lay within 200 to 203 °C.

For `COc1cccc(F)c1Oc1nnc(Cl)cc1O` [Compound No. 732, 6-Chloro-3-(2-fluoro-6-methoxyphenoxy)-4-pyridazinol], the melting point lay in the range of 190 to 194 °C.

For `Oc1cc(Cl)nnc1Oc1c(Cl)cccc1Br` [Compound No. 734, 3-(2-Bromo-6-chlorophenoxy)-6-chloro-4-pyridazinol], the melting point was 266 to 274 °C.

The compound `Oc1cc(Cl)nnc1Oc1c(Cl)cccc1I` [Compound No. 735, 6-Chloro-3-(2-chloro-6-iodophenoxy)-4-pyridazinol] displayed a melting point of 262 to 264 °C.

The compound `CCc1cccc(Cl)c1Oc1nnc(Cl)cc1O` [Compound No. 737, 6-Chloro-3-(2-chloro-6-ethylphenoxy)-4-pyridazinol] had a melting point of 194 to 195 °C.

`CC(C)c1cccc(Cl)c1Oc1nnc(Cl)cc1O` [Compound No. 738, 6-Chloro-3-(2-chloro-6-isopropylphenoxy)-4-pyridazinol]: the melting point was in the range of 218 to 233 °C.

Take `Oc1cc(Cl)nnc1Oc1c(Cl)cccc1C1CC1` [Compound No. 740, 6-Chloro-3-(2-chloro-6-cyclopropylphenoxy)-4-pyridazinol]: the melting point lay within 224 to 225 °C.

`C=C(C)Cc1cccc(Cl)c1Oc1nnc(Cl)cc1O` [Compound No. 746, 6-Chloro-3-[2-chloro-6-(2-methyl-2-propenyl)phenoxy]-4-pyridazinol] showed a melting point of 198 to 200 °C.

On to `Oc1cc(Cl)nnc1Oc1c(Br)cccc1Br` [Compound No. 756, 6-Chloro-3-(2,6-dibromophenoxy)-4-pyridazinol], for which the melting point was in the range of 274 to 278 °C.

`Cc1cccc(Br)c1Oc1nnc(Cl)cc1O` [Compound No. 758, 3-(2-Bromo-6-methylphenoxy)-6-chloro-4-pyridazinol]: the melting point is 242 to 243 °C.

Regarding `CCc1cccc(Br)c1Oc1nnc(Cl)cc1O` [Compound No. 759, 3-(2-Bromo-6-ethylphenoxy)-6-chloro-4-pyridazinol], the melting point is 215 to 217 °C.

As to `CC(C)c1cccc(Br)c1Oc1nnc(Cl)cc1O` [Compound No. 760, 3-(2-Bromo-6-isopropylphenoxy)-6-chloro-4-pyridazinol], the melting point was 232 to 253 °C (dec.).

Compound `CC(C)(C)c1cccc(Br)c1Oc1nnc(Cl)cc1O` [Compound No. 761, 3-(2-Bromo-6-tert-butylphenoxy)-6-chloro-4-pyridazinol] showed a melting point of 240 to 247 °C.

`Oc1cc(Cl)nnc1Oc1c(Br)cccc1C1CC1` [Compound No. 762, 3-(2-Bromo-6-cyclopropylphenoxy)-6-chloro-4-pyridazinol] yielded a melting point of 230 to 232 °C.

On to `COc1cccc(Br)c1Oc1nnc(Cl)cc1O` [Compound No. 778, 3-(2-Bromo-6-methoxyphenoxy)-6-chloro-4-pyridazinol], for which the melting point was 220 to 221 °C.

The compound `Cc1cccc(I)c1Oc1nnc(Cl)cc1O` [Compound No. 780, 6-Chloro-3-(2-iodo-6-methylphenoxy)-4-pyridazinol] gave a melting point of 250 to 252 °C.

`CCc1cccc(I)c1Oc1nnc(Cl)cc1O` [Compound No. 781, 6-Chloro-3-(2-ethyl-6-iodophenoxy)-4-pyridazinol] displayed a melting point of 242 to 244 °C.

The compound `CC(C)c1cccc(I)c1Oc1nnc(Cl)cc1O` [Compound No. 782, 6-Chloro-3-(2-iodo-6-isopropylphenoxy)-4-pyridazinol] returned a melting point of 250 to 255 °C.

The compound `Cc1cccc(C)c1Oc1nnc(Cl)cc1O` [Compound No. 801, 6-Chloro-3-(2,6-dimethylphenoxy)-4-pyridazinol] yielded a melting point of 214 to 215 °C.

Regarding `Cc1cccc(C(C)C)c1Oc1nnc(Cl)cc1O` [Compound No. 803, 6-Chloro-3-(2-isopropyl-6-methylphenoxy)-4-pyridazinol], the melting point is 215 to 220 °C.
